Columns and labels:
Long COVID = experiment: Patients afflicted with Long COVID administered 500 mg Mitopure (Urolithin A); type: in vivo, human; conditions: three Long COVID patients, patient-indicated
Method: Three patients afflicted with Long COVID were administered 500 mg Mitopure™ (Urolithin A). Each patient indicated improvement in symptoms including reduced fatigue and improved muscle function.

human PBMCs = experiment: RNA-seq transcriptomic analysis / GSEA of PBMCs from healthy elderly supplemented with Urolithin A; type: in vivo; conditions: 500 mg/day for 28 days, end of treatment vs baseline, placebo-filtered
Method: RNA was extracted from frozen human PBMCs and quality of extraction controlled with Agilent Fragment Analyzer System. RNA-seq library was prepared as strand-specific cDNA library, after the following steps: Purification of poly-A containing mRNA molecules; mRNA fragmentation; Random primed cDNA synthesis (strand-specific); Adapter ligation and adapter specific PCR amplification. RNA-seq run was performed with the NovaSeq6000 using S4 flowcells with 2×150 bp giving at least 30 million read pairs per sample
The RNA-Seq reads were aligned to the reference human transcriptome using Bowtie generating genome/transcriptome alignments. TopHat identifid the potential exon-exon splice junctions of the initial alignment. Then Cufflinks identified and quantified the transcripts from the preprocessed RNA-Seq alignment assembly. After this, Cuffmerge merged the identified transcript pieces to full length transcripts and annotates the transcripts based on the given annotations. Finally, merged transcripts from two or more samples/conditions were compared, using Cuffdiff to determine the differential expression levels at transcript and gene level including a measure of significance between samples/conditions.
Gene set enrichment analysis (GSEA) was conducted using R package clusterProfiler, v. 3.18.068. Enrichments of Gene Ontology (GO) Biological Process (BP) was investigated. All the genes subjected to the DE analysis and that passed the independent filtering of DEseq2 were ranked by shrunk log 2 fold change values and used as input data for the analysis. Ensembl IDs of the genes were converted to Entrez IDs for the analysis using biomaRt, v. 2.46. Minimum and maximum genes et sizes were set to 15 and 500, respectively. In order to adjust for the placebo effect, the GSEA results of Urolithin A at 500 mg were filtered to exclude enriched terms (p-value <0.05) obtained from the GSEA of the Placebo DEGs. Key pathways were visualised as bar plots ranked by Normalized Enrichment score (NES).
RNA-seq transcriptomic analysis was performed in healthy elderly supplemented with either Urolithin A (UA) at 500 mg/day or Placebo for 28 days. Peripheral blood mononuclear cells (PBMCs) were isolated and collected at baseline and at the end of the study. RNA was extracted from these subjects and used to perform RNA-seq and determine biological pathways modulated specifically by Urolithin A, but not Placebo, comparing end-of treatment to baseline

For `O=c1oc2cc(O)ccc2c2ccc(O)cc12` [Urolithin A, urolithin A], the fatigue (Long COVID) was “reduced”, the muscle function (Long COVID) was “improved” and the symptoms (Long COVID) was “improvement”. The “Gene Ontology gene set "mitochondrial gene expression"” value (human PBMCs) was “up-regulated”, the “Gene Ontology gene set "mitochondrial respiratory chain complex assembly"” value (human PBMCs) was “up-regulated” and the “Gene Ontology gene set "neutrophil activation"” value (human PBMCs) was “down-regulated”. For the same molecule, the “Gene Ontology gene set "oxidative phosphorylation"” value (human PBMCs) was “up-regulated” and the “Gene Ontology gene set "regulation of response to cytokine stimulus"” value (human PBMCs) was “down-regulated”.
